Target: T1, BB0401 (GltPBb) (Borreliella burgdorferi, UniProt O51362)
T1 construct: gene BB_0401; full-length bb0401 ORF, IPTG-inducible from shuttle vector pibb0401 in chromosomal bb0401-deleted B. burgdorferi (bb0401^cond); intact cells; no tag mentioned
Experiment: heavy-isotope uptake into conditional mutant with and without IPTG, LC-MS/MS
Assay type: cell-based
Settings: BSK-II medium with unlabelled amino acids, 37 C, 2 h or 6 h uptake after 48 h or 7 d without inducer

T1 sequence (O51362 entry or part of it): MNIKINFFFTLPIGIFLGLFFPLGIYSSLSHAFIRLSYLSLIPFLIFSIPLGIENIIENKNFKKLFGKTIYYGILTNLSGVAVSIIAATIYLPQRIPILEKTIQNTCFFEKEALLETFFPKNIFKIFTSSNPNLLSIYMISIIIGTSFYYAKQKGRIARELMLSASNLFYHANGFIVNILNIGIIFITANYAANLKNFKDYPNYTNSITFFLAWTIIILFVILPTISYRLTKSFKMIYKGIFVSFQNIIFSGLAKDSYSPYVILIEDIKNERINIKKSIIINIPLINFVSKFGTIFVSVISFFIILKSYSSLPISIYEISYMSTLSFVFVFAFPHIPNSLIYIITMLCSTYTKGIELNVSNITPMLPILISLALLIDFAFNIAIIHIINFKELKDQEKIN

Row | Compound | heavy-isotope uptake into conditional mutant with and without IPTG, LC-MS/MS (labelled compound (13C5,15N1), 86.2 mg/L) | heavy-isotope uptake into conditional mutant with and without IPTG, LC-MS/MS (labelled compound (13C4,15N1), 30 mg/L)
1 | N[C@@H](CCC(=O)O)C(=O)O [heavy glutamate (^13C5,^15N1)] | more dramatic reduction in the amount of heavy labeled aspartate and glutamate imported | 
2 | N[C@@H](CC(=O)O)C(=O)O [heavy aspartate (^13C4,^15N1)] |  | more dramatic reduction in the amount of heavy labeled aspartate and glutamate imported
